Columns and labels:
mGlu2 [1] = biological target: T1, mGlu2 (Homo sapiens, UniProt Q14416); assay: Standardized bioassay protocol, mGluR2 antagonist/NAM assay; type: cell-based; details: for Activity Level: 20 μM, mGlu2 activity, control at 100%, greater than control indicates NAM or antagonist; for Bioactivity Class: assay performed at 20 μM
Protocol: (§1) A standardized bioassay protocol was followed as illustrated in FIG. 3. In the standardized bioassay protocol, an assay buffer of HBSS with 1% HEPES was used. Cells were seeded overnight at 10,000 cells/well in 20 μl plating reagent. Controls for the experiment were an agonist of L-glutamic acid (AC156212500), agonist of LY354740 (fisher part #: 32-465-0), antagonist of LY341495 (fisher part #: 12-095-0), PAM of BINA (fisher part #: 40-485-0), and NAM of (decoglurant (fisher part #: 50-203-0742).
(§2) The results are illustrated in Table 7 and FIGS. 4 and 5. FIG. 4 illustrates mGlu2 activity greater than control (dotted red line at 100%) is indicative of an mGlu2 negative allosteric modulator or antagonist. The assay was performed at 20 μM. FIG. 5 illustrates mGlu2 activity less than the control (at 100%) is indicative of a mGlu2 positive allosteric modulator or agonist. The assay was performed at 100 μM.

mGlu2 [2] = biological target: T1, mGlu2; assay: Standardized bioassay protocol, mGluR2 agonist/PAM assay; type: cell-based; details: for Activity Level: 100 μM, mGlu2 activity, control at 100%, less than control indicates PAM or agonist; for Bioactivity Class: assay performed at 100 μM
Protocol: as §1, §2

T1 sequence (Q14416 19-872): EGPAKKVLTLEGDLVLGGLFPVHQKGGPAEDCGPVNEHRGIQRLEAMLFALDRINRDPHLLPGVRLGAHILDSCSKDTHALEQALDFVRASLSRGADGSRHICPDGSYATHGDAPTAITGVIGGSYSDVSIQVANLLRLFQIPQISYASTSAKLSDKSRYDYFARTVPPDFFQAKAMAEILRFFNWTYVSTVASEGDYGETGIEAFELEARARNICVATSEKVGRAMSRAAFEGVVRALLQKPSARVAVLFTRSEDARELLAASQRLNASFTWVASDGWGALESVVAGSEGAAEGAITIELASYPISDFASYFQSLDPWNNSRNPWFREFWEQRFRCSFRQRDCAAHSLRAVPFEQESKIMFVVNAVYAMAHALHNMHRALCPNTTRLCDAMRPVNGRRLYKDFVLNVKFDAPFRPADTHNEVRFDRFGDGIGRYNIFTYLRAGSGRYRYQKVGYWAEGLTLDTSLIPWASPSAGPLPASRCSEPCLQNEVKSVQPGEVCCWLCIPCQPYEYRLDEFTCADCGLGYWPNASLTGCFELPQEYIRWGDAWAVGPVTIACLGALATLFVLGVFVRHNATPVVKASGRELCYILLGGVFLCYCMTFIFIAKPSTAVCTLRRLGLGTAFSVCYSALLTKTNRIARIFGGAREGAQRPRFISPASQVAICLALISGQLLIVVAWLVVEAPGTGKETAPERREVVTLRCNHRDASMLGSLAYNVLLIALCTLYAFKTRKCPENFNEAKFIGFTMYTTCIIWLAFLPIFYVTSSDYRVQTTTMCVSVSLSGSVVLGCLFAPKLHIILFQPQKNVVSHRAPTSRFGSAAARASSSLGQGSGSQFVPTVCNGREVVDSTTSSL

| Compound | Activity Level (mGlu2 [1]) | Bioactivity Class (mGlu2 [1]) | Activity Level (mGlu2 [2]) | Bioactivity Class (mGlu2 [2]) |
| --- | --- | --- | --- | --- |
| CC(=O)Oc1cccc2c1C(=O)c1c(OC(C)=O)cc(C(=O)O)cc1C2=O [Compound 7] | 20 μM/195.543% | Antagonist/NAM |  |  |
| O=C1c2cccc(O)c2C(=O)c2c(O)cccc21 [Compound 6] | 20 μM/142.558% | Antagonist/NAM |  |  |
| COC(=O)C1OC(=O)c2cc(O)c(O)c(O)c2C1C(CC(=O)O)C(=O)OC1C(COC(=O)c2ccc(O)c(O)c2)OC(OC(=O)c2cc(O)c(O)c(O)c2)C(O)C1OC(=O)c1cc(O)c(O)c(O)c1 (stereo not drawn) [Compound 12] |  |  | 100 μM/25.688% | Agonist/PAM |
| O=C(O)c1cc(O)c2c(c1)C(=O)c1cccc(O)c1C2=O [Compound 8] | 20 μM/749.225% | Antagonist/NAM |  |  |
| Cn1c(=O)[nH]c(=O)c2[nH]cnc21 [Compound 10] | 20 μM/152.609% | Antagonist/NAM |  |  |
| O=C1c2cccc(O)c2C(=O)C2C(O)=CC(CO)=CC12 (stereo not drawn) [Compound 4] | 20 μM/191.200% | Antagonist/NAM |  |  |
| Cn1cnc2c1c(=O)[nH]c(=O)n2C [Compound 11] | 20 μM/153.003% | Antagonist/NAM |  |  |
| Cc1cc(O)c2c(c1)C(=O)c1cc(O)cc(O)c1C2=O [Compound 13] |  |  | 100 μM/9.870% | Agonist/PAM |
| COc1cc(O[C@@H]2O[C@H](CO)[C@@H](O)[C@H](O)[C@H]2O)c2c(O)c(C(C)=O)c(C)cc2c1 [Compound 9] | 20 μM/107.501% | Antagonist/NAM |  |  |
